TGI and GI50 data for six molecules are collected here from PubChem BioAssay (NCI).

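The compound was tested at five concentrations on cells cultured in 96-well plates, with a 48-hour exposure period. GI50: concentration for 50% inhibition of growth. TGI is the concentration that stops growth completely.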

Among the test systems are HOP-92 NSCLC; UACC-62 melanoma; 786-0 renal; RXF 393 renal; MALME-3M melanoma; SW-620 colon; HT29 colon; UO-31 renal; SK-MEL-28 melanoma; MDA-MB-231 breast.
What all share (experiment): NCI anticancer screen, dose series, 48 h

As to `CNC(=O)OCc1c(COC(=O)NC)c(C)n(-c2ccc(Br)cc2)c1C`, the TGI in the assay with HOP-92 NSCLC was found to be 31 µM; with UACC-62 melanoma it was 18.5 µM; with 786-0 renal, 27.8 µM; in the assay with RXF 393 renal, 19.8 µM; in the assay on MALME-3M melanoma, 36.3 µM; in the assay with SW-620 colon, 27.3 µM. In addition, the TGI came to 22.4 µM with HT29 colon, 19.5 µM in the assay on UO-31 renal, 35.2 µM in the assay on SK-MEL-28 melanoma and 30.5 µM with MDA-MB-231 breast.
Consider `COC(=O)C(Cc1ccccc1)NC(=O)NC(=O)NC(=O)CI` (stereo not given), for which the GI50 was 2.51 µM in the assay with HOP-92 NSCLC; 12.3 µM in the assay on UACC-62 melanoma; 3.35 µM in the assay with 786-0 renal; 7.75 µM in the assay on RXF 393 renal; 1.55 µM in the assay on MALME-3M melanoma; 5.95 µM with SW-620 colon. For the same molecule, the GI50 with HT29 colon is 14.2 µM; in the assay with UO-31 renal it was 1.83 µM; in the assay with SK-MEL-28 melanoma, 3.5 µM; with MDA-MB-231 breast it was 5.2 µM. Besides, the TGI with HOP-92 NSCLC amounted to 5.51 µM; with UACC-62 melanoma, 26 µM; in the assay on 786-0 renal it was 10.9 µM; in the assay with RXF 393 renal, 20.2 µM; with MALME-3M melanoma, 3.34 µM; in the assay with SW-620 colon, 21.7 µM. Besides, the TGI in the assay with HT29 colon was 49.9 µM; in the assay on UO-31 renal it was 3.44 µM; in the assay with SK-MEL-28 melanoma, 13.8 µM; in the assay on MDA-MB-231 breast it was 20.1 µM.
As for `CC1=C(CCC(C)N(C)Cc2ccc(OCCCN3CCCC3)cc2)C(C)(C)CCC1` (stereo not given), the GI50 with HOP-92 NSCLC was 2.83 µM; in the assay with UACC-62 melanoma, 2.11 µM; in the assay on 786-0 renal, 2.59 µM; with RXF 393 renal it was 2.59 µM; in the assay on MALME-3M melanoma it was 1.67 µM; in the assay on SW-620 colon, 3.01 µM. Moreover, the GI50 in the assay with HT29 colon is 0.764 µM; with UO-31 renal, 3.2 µM; in the assay with SK-MEL-28 melanoma it was 1.68 µM; in the assay on MDA-MB-231 breast it was 1.89 µM. Besides, the TGI in the assay with HOP-92 NSCLC was determined as 13.1 µM; in the assay on UACC-62 melanoma, 4.17 µM; with 786-0 renal, 11.7 µM; with RXF 393 renal it was 10.2 µM; in the assay on MALME-3M melanoma, 3.23 µM; in the assay with SW-620 colon it was 10.8 µM. Also, the TGI in the assay with HT29 colon was determined as 6.94 µM; with UO-31 renal it was 13.3 µM; in the assay on SK-MEL-28 melanoma, 3.5 µM; with MDA-MB-231 breast, 4.48 µM.
As for `CCN=C1C=CC(=C(c2ccc(N)cc2)c2ccc(N(CC)CC)c(C)c2)C=C1`, the GI50 in the assay with HOP-92 NSCLC is 0.182 µM; in the assay with UACC-62 melanoma, 0.248 µM; in the assay on 786-0 renal, 0.344 µM; in the assay on RXF 393 renal, 0.4 µM; in the assay with MALME-3M melanoma it was 0.329 µM; with SW-620 colon, 0.345 µM. The GI50 in the assay with HT29 colon is 0.271 µM; with UO-31 renal, 2.03 µM; in the assay with SK-MEL-28 melanoma, 0.394 µM; in the assay on MDA-MB-231 breast it was 0.219 µM. For the same molecule, the TGI in the assay with HOP-92 NSCLC was found to be 0.543 µM; in the assay with UACC-62 melanoma it was 0.866 µM; in the assay on 786-0 renal, 1.84 µM; in the assay on RXF 393 renal, 1.86 µM; in the assay with MALME-3M melanoma it was 1.23 µM; with SW-620 colon, 1.62 µM. The TGI with HT29 colon is 1.2 µM; in the assay with UO-31 renal it was 10.3 µM; with SK-MEL-28 melanoma, 1.96 µM; in the assay on MDA-MB-231 breast, 0.654 µM.
Consider `N#C/C(=C\c1c(-c2ccccc2)[nH]c2ccccc12)S(=O)(=O)c1ccccc1`, for which the GI50 in the assay with HOP-92 NSCLC is 8.88 µM; in the assay with UACC-62 melanoma, 2.38 µM; in the assay on 786-0 renal it was 8.46 µM; with RXF 393 renal, 3.43 µM; in the assay with MALME-3M melanoma, 6.77 µM; in the assay with SW-620 colon it was 0.544 µM. Also, the GI50 in the assay with HT29 colon was 0.594 µM; with UO-31 renal it was 6.54 µM; in the assay on SK-MEL-28 melanoma, 5.97 µM; in the assay on MDA-MB-231 breast, 3.55 µM. The TGI in the assay with HOP-92 NSCLC was 69.8 µM; in the assay on UACC-62 melanoma, 24.9 µM; with 786-0 renal it was above 100 µM; in the assay with RXF 393 renal, above 27.4 µM; in the assay on MALME-3M melanoma, above 55.8 µM; in the assay with SW-620 colon, 20.5 µM. In addition, the TGI was above 41.5 µM with HT29 colon, above 61.7 µM with UO-31 renal, 28.8 µM in the assay with SK-MEL-28 melanoma and 33.7 µM in the assay with MDA-MB-231 breast.
As to `N=C(N)c1ccc(N2CCCN(c3ccc(C(=N)N)cc3)CC2)cc1`, the GI50 is 89.6 µM with HOP-92 NSCLC; 89 µM with UACC-62 melanoma; above 100 µM in the assay on 786-0 renal; 98.2 µM in the assay on RXF 393 renal; 39.6 µM in the assay with MALME-3M melanoma; above 100 µM in the assay with SW-620 colon. For the same molecule, the GI50 in the assay with HT29 colon is 74.5 µM; in the assay on UO-31 renal, above 100 µM; in the assay on SK-MEL-28 melanoma, above 100 µM; in the assay on MDA-MB-231 breast, above 100 µM. For the same molecule, the TGI with HOP-92 NSCLC, with UACC-62 melanoma, in the assay on 786-0 renal, with RXF 393 renal, in the assay on MALME-3M melanoma and in the assay with SW-620 colon was above 100 µM in each case. For the same molecule, the TGI with HT29 colon, with UO-31 renal, in the assay on SK-MEL-28 melanoma and in the assay on MDA-MB-231 breast was above 100 µM each time.
